Data set [1] deals with total intracellular HDAC activity. Briefly: HDACi activity with fluorogenic substrate in live SCC4 cells. The data set is classed as cell-based, human. The settings on record: increasing concentration, FIG. 2a, b. An excerpt:
(§1) This assay measures the inhibition of total intracellular HDAC activity and determines the capacity of compounds to inhibit HDACs in the form of their naturally occurring complexes.

Data set [2] has the same test system. Briefly: HDACi activity with fluorogenic substrate in live SCC25 cells. It is filed as cell-based, human. To be noted: increasing concentration, FIG. 2a, b.
Source text: as §1

In data set [3] the target is T1, VDR (Homo sapiens (Human), UniProt P11473). Briefly: VDR agonism: induction of CYP24 gene expression in SCC25 cells (RT/PCR). The data set is classed as cell-based. The settings on record: for VDR agonist activity/potency (CYP24 induction, dose response): 1d; for induction of CYP24 by the compound blocked (consistent with binding to the VDR): FIG. 1c; for VDR agonism by induction of CYP24 gene expression (screen): test compounds 10 μM, FIG. 1a. The procedure:
RNA isolation and RT/PCR analysis. PCR primers against CYP24 (forward, 5',5'-[NT], reverse, 5'-[NT] designed using Primer3 software as described and used in […]-Mendoza, Quach, T., Dabbas, B., Hudon, J., Liao, X., Palijan, A., Gleason, J. L., and White, J. H. (2008) Incorporation of histone deacetylase inhibition into the structure of a nuclear receptor agonist. Proc. Nat. Acad. Sci. […] After treatment, cells were washed with PBS, homogenized with 1 ml TRIzol Reagent (Invitrogen, Carlsbad, Calif.), kept at room temperature for 2-5 min, collected and kept at -80° C. for at least 1 h. After, thawing 0.2 ml chloroform was added. After vigorous mixing and storing for 10 min, mixtures were centrifuged (10,000 rpm, 15 min, 4° C.) and the upper transparent layer was transferred to a new tube. 0.5 ml isopropanol was added and the new solution was mixed. After centrifuging at 4° C., the supernatant was discarded and 1 ml of 75% ethanol was added. After centrifuging and discarding the supernatant, the pellet was air-dried for 5-10 min, and then dissolved in ddH2O. RNA concentrations were measured using a spectrophotometer, and 1-3 μg of RNA were loaded for reverse transcriptase reactions (total volume: 20 μl). 80 μl of ddH2O was added to the RT-product, and 1.5 μl of that was used as template for the PCR reaction. Reverse transcriptase (Super Script II) was purchased from Invitrogen (Carlsbad, Calif.). DNA polymerase and dNTP's were ordered from Fermentas (Glen Burnie, Md.).

The test system of data set [4] is SCC4 cells. Briefly: MTS cell proliferation assay, SCC4. The settings on record: vitamin D resistant SCC4 cells; FIGS. 7c, 8 and 9. It is filed as cell-based, human. The source says:
Dose-dependent effects of compounds on cell cycle progression was monitored using a CellTiter 96 Aqueous Non-Radioactive Cell Proliferation Assay Kit (Promega). The assay composed of solutions of a novel tetrazolium compound (MTS) and an electron coupling reagent (phenazine methosulfate; PMS). MTS is reduced by metabolically active cells into a soluble formazan product that absorbs at 490 nm. The quantity of formazan product absorbing at 490 nm is directly proportional to the number of living cells.
For orientation: Formazan colour is commonly taken as a measure of viable cells.

In data set [5] the test system is SCC4 cells. Briefly: EdU cell growth assay, SCC4. To be noted: 1,25D-resistant SCC4 cells; FIG. 2e, f.
Method: EdU Cell Growth Assay. Click-iT EdU Alexa Fluor high-throughput imaging (HCS) assay for cell proliferation. HCS assays were performed on AT84 mouse squamous carcinoma cell line (ATCC) following the manufacturer's instruction (Molecular Probes, Invitrogen). […] All samples were in triplicate.
Data set [6] deals with SCC4 cells. Briefly: LDH cytotoxicity assay, SCC4. The data set is classed as cell-based, human. To be noted: vitamin D resistant SCC4 cells; FIGS. 10 and 11. On the procedure:
The cytotoxic effects of compounds were screened using a Cytotoxicity Assay Kit (Cayman Chemical), which measures release of the soluble […] enzyme lactate dehydrogenase (LDH) from dying cells into the culture medium using a coupled two-step reaction. LDH in the media catalyzes the reduction of NAD+ to NADH and H+ by oxidation of lactate to pyruvate. LDH-catalyzed NADH production is then measured by following diaphorase catalyzed NADH-dependent reduction of a tetrazolium salt (INT) to highly-colored formazan which absorbs strongly at 490-520 nm.

Data set [7] concerns the target T1, VDR. Briefly: Chromatin immunoprecipitation (ChIP) assay, CYP24 promoter, SCC25 cells. The data set is classed as cell-based. To be noted: FIG. 1e. The procedure:
Chromatin immunoprecipitation assays. ChIP assays were performed with sonicated extracts of SCC25 cells as described (see Wang, T.-T. et al. J Immunol (2004) 173:2909-2912). […] Immunoprecipitations were performed using normal rabbit IgG, anti-VDR antibody (c-20) (Santa Cruz Biotechnology, Santa Cruz, Calif.). […].

Data set [8] concerns the target VDR ligand binding domain (Homo sapiens (Human), UniProt P11473). Briefly: Fluorescence polarization (FP) competition assay. To be noted: 0.5 nM fluorescent tracer. On the procedure: Fluorescence polarization (FP) competition assay. The assay was performed using a vitamin D receptor competitor assay kit (Polarscreen, Invitrogen, Carlsbad, Calif.) set up using 0.5 nM fluorescent tracer. The assay measures the decrease in FP accompanying loss of binding to the relatively high molecular weight VDR ligand binding domain of the fluorescent tracer due to the presence of a competitor. FP was measured using an Analyst HT fluorimeter (Molecular Devices) configured with absorption and emissions filters as recommended by the kit manufacturers. Dose response curves and IC50 determination were determined using XLfit (IDBS) Sigmoidal Dose-Response Model [fit=(A+((B−A)/(1+((C/x)^D)))); inv=(C/((((B−A)/(y−A))−1)^(1/D))); res=(y−fit)].
(In fluorescence polarisation assays a small probe gives low polarisation when free and higher when bound to something large.)

T1 sequence (P11473 whole entry): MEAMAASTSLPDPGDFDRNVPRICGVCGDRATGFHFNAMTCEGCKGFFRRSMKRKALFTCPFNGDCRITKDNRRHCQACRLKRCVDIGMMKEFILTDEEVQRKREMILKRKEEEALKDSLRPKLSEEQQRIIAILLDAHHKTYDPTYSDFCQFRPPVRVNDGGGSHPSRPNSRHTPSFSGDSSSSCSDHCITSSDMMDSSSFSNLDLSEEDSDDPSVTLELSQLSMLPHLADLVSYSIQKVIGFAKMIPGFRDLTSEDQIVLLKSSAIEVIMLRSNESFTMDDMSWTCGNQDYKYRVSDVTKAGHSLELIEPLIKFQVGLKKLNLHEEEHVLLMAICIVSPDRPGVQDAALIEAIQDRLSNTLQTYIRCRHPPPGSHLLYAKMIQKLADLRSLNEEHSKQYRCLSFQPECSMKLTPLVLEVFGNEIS
VDR ligand binding domain, sequence (P11473 127-423): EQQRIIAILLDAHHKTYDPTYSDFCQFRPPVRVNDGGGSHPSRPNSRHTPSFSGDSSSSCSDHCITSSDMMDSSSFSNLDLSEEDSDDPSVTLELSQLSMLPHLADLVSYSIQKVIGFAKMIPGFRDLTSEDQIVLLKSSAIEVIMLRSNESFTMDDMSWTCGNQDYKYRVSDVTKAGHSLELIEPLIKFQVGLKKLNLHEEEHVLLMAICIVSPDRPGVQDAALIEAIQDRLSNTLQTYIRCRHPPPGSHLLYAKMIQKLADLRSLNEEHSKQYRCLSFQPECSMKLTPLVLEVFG

For the compound `CCC(O)(CC)COc1ccc(C(CC)(CC)c2ccc(OCC(=O)NO)c(C)c2)cc1C` [JF-B54, 2-(4-(3-(4-(2-Ethyl-2-hydroxybutoxy)-3-methylphenyl)pentan-3-yl)-2-methylphenoxy)-N-hydroxyacetamide], the “inhibition of total intracellular HDAC activity (substrate deacetylation)” value in data set [1] and in data set [2] was “the most potent” throughout. Also, on VDR [3] (FIG. 1b), the “VDR agonist activity/potency (CYP24 induction, dose response)” value (shortened to “VDR agonist activity/potency”) is on record as “showed VDR agonist activity, but with reduced potency”. Also, at VDR [3], the “induction of CYP24 by the compound blocked (consistent with binding to the VDR)” value is given as “blocked”. Take `CCC(CC)(c1ccc(OCC(O)C(C)(C)C)c(C)c1)c1cn(C)c2cc(CCC(=O)NO)ccc12` (stereo not shown) [DK-234, N-hydroxy-3-(3-(3-(4-(2-hydroxy-3,3-dimethylbutoxy)-3-methylphenyl)pentan-3-yl)-1-methyl-1H-indol-6-yl)propanamide]: the “antiproliferative potency (MTS)” value with SCC4 cells [4] was “low micromolar potency”. Same read-out and setting: for `CCC(CC)(c1ccc(OCCCCCC(=O)NO)cc1)c1ccc(OCC(O)C(C)(C)C)c(C)c1` (stereo not shown) [DK-367] the value was “low micromolar potency”.

Consider `CCC(CC)(c1ccc(OCC(O)CO)c(C)c1)c1ccc(OCC(O)C(C)(C)C)c(C)c1` (stereo not shown) [LG190178], for which, in the data set on SCC4 cells [5], the “inhibition of proliferation (EdU incorporation)” value is “failed to block SCC4 proliferation”.

On to `CCC(CC)(c1ccc(OCC(O)C(C)(C)C)c(C)c1)c1c[nH]c2cc(CCC(=O)NO)ccc12` (stereo not shown) [DK-222], for which the “antiproliferative potency (MTS)” value with SCC4 cells [4] is recorded as “low micromolar potency”. In the data set on SCC4 cells [6], the “cytotoxicity (LDH release)” value is given as “good cytotoxicity”. For `CCC(CC)(c1ccc(OCC(=O)NO)cc1)c1ccc(OCC(O)C(C)(C)C)c(C)c1` (stereo not shown) [DK-366, N-hydroxy-2-(4-(3-(4-(2-hydroxy-3,3-dimethylbutoxy)-3-methylphenyl)pentan-3-yl)phenoxy)acetamide] the same measures were “low micromolar potency” and “good cytotoxicity”. As to `CCC(CC)(c1ccc(OCC(=O)NO)c(C)c1)c1ccc(OCC(O)CO)c(C)c1` (stereo not shown) [JF-B40], the “VDR agonism by induction of CYP24 gene expression (screen)” value (from here on “VDR agonism by induction”) at VDR [3] is “completely inactive as VDR agonists”. Regarding `CCC(CC)(c1ccc(OCCCC(=O)NO)c(C)c1)c1ccc(OC[C@H](O)C(C)(C)C)c(C)c1` [JFD-15], the “antiproliferative potency (MTS)” value with SCC4 cells [4] was “low micromolar potency”. Turning to `CCC(CC)(c1ccc(OCC(=O)NO)c(C)c1)c1ccc(OCC(CO)CO)c(C)c1` [JF-B21], the “VDR agonism by induction” value on VDR [3] is “completely inactive as VDR agonists”. Consider `CCC(CC)(c1ccc(OCC(=O)NO)c(C)c1)c1ccc(OCC(C)(C)O)c(C)c1` [JF-B53, N-Hydroxy-2-(4-(3-(4-(2-hydroxy-2-methylpropoxy)-3-methylphenyl)pentan-3-yl)-2-methylphenoxy)acetamide], for which the “VDR agonist activity/potency” value at VDR [3] (FIG. 1b) is on record as “showed VDR agonist activity, but with reduced potency”. The “induction of CYP24 by the compound blocked (consistent with binding to the VDR)” value on VDR [3] is “blocked”. Regarding `CCC(CC)(c1ccc(OCC(=O)NO)c(C)c1)c1ccc(OCC(=O)NO)c(C)c1` [JF-B06], the “VDR agonism by induction” value on VDR [3] was “completely inactive as VDR agonists”. As to `CCC(CC)(c1ccc(OCC(O)C(C)(C)C)c(C)c1)c1cc(C)c(CCC(=O)NO)s1` (stereo not shown) [DK-178, N-hydroxy-3-(5-(3-(4-(2-hydroxy-3,3-dimethylbutoxy)-3-methylphenyl)pentan-3-yl)-3-methylthiophen-2-yl)propanamide], the “antiproliferative potency (MTS)” value in the data set on SCC4 cells [4] was “low micromolar potency”. As to `CCC(CC)(c1ccc(CCC(=O)NO)c(C)c1)c1ccc(OC[C@H](O)C(C)(C)C)c(C)c1` [JFD-50], the “antiproliferative potency (MTS)” value in the data set on SCC4 cells [4] is recorded as “low micromolar potency”.

As for `CCC(CC)(c1ccc(OCC(O)C(C)(C)C)c(C)c1)c1ccc(OCC(=O)NO)c(Br)c1` (stereo not shown) [DK-309, 2-(2-bromo-4-(3-(4-(2-hydroxy-3,3-dimethylbutoxy)-3-methylphenyl)pentan-3-yl)phenoxy)-N-hydroxyacetamide], the “cytotoxicity (LDH release)” value in the data set with SCC4 cells [6] was “good cytotoxicity”. As for `CCC(CC)(c1ccc(OCC(=O)O)c(C)c1)c1ccc(OCC(=O)C(C)(C)C)c(C)c1` [JF-C11], the “VDR agonism by induction” value at VDR [3] is listed as “showed some agonist activity”. Take `CCC(CC)(c1ccc(OCC(=O)NO)c(C)c1)c1ccc(OCC(=O)C(C)(C)C)c(C)c1` [JF-B59, 2-(4-(3-(4-(3,3-dimethyl-2-oxobutoxy)-3-methylphenyl)pentan-3-yl)-2-methylphenoxy)-N-hydroxyacetamide]: the “VDR agonist potency relative to JF-B01 (fold lower)” value on VDR [3] (FIG. 1b) was more than 10 fold. As to `CCC(CC)(c1ccc(OCCO)c(C)c1)c1ccc(OCC(=O)NO)c(C)c1` [JF-B52, N-Hydroxy-2-(4-(3-(4-(2-hydroxyethoxy)-3-methylphenyl)pentan-3-yl)-2-methylphenoxy)acetamide], the “VDR agonism by induction” value at VDR [3] is “completely inactive as VDR agonists”. In the case of `CCC(CC)(c1ccc(OCC(=O)NO)c(C)c1)c1ccc(OC[C@H](O)C(C)(C)C)c(C)c1` [JF-C71, N-Hydroxy-2-(4-(3-(4-((2R)-hydroxy-3,3-dimethylbutoxy)-3-methylphenyl)pentan-3-yl)-2-methylphenoxy)acetamide], the “binding of the VDR to the vitamin D response element in the proximal promoter of the CYP24 gene (ChIP)” value at VDR [7] was “induced binding of the VDR to the vitamin D response element”. Besides, the “antiproliferative potency (MTS)” value in the data set on SCC4 cells [4] is “low micromolar potency”. For the same compound, the IC50 (usually the concentration at which inhibition is half-maximal) in data set [8] was approximately 100 nM. Besides, the “VDR agonist activity/potency” value at VDR [3] (FIG. 1b) is “VDR agonists with similar potencies”. Regarding `CCC(CC)(c1ccc(OCC(=O)NO)c(C)c1)c1ccc(OC[C@@H](O)C(C)(C)C)c(C)c1` [JF-C72], the “binding of the VDR to the vitamin D response element in the proximal promoter of the CYP24 gene (ChIP)” value on VDR [7] is listed as “induced binding of the VDR to the vitamin D response element”. Moreover, in the data set with SCC4 cells [4], the “antiproliferative potency (MTS)” value is “low micromolar potency”. In data set [8], this compound yielded a 50% inhibitory concentration (IC50) of approximately 35 nM. Also, the “VDR agonist activity/potency” value at VDR [3] (FIG. 1b) was “VDR agonists with similar potencies”.

For the origin of these results see patent publication US9428447B2, “Bis-(aryl/heteroaryl)-methylene compounds, pharmaceutical compositions containing same and their use for treating cancer” (The Royal Institution For The Advancement of …, priority 2011, dated 2016).
